# Laboratory results reported in US20230145822A1 (priority 2020, published 2023).
# Entries after “also recorded” stand apart in the source; their conditions may differ. Read-outs that look alike come from different tables or passages of the source.
# Legend:
# human PrP^C = human PrP^C (Homo sapiens, UniProt P04156); format: cell-based
# mouse PrP^C mRNA = format: cell-based
# PrP^C mRNA [1] = format: cell-based, mouse
# PrP^C mRNA [2] = format: cell-based, human
# PrP^C = PrP^C (Mus musculus, UniProt P04925); format: cell-based; settings: 1-10 μM, 24 h, PNGase-F
# EGFP-PrP^C = format: cell-based, mouse; settings: 24 h, 3-10 μM
# NEGR-1 = format: cell-based
# LC3II = format: cell-based
# ZR-75 cells = settings: human
# RML prion strain = format: cell-based, mouse
# Chain of PrP^C (P04925 23-254 limits assumed): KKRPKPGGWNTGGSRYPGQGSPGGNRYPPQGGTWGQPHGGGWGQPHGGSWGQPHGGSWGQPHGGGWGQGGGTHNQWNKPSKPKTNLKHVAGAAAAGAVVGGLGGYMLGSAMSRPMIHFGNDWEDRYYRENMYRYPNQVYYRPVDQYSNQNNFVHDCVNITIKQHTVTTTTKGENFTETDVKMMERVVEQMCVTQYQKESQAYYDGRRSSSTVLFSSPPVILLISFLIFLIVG
compound,measurement,setting,value
"CO/C1=C\C(C)=C\[C@@H](C)[C@@H](O)[C@@H](C)C/C(C)=C/C=C/[C@H](OC)[C@@H]([C@@H](C)[C@@H](O)[C@H](C)[C@@]2(O)C[C@@H](O)[C@H](C)[C@@H](C(C)C)O2)OC1=O [BAF, Bafilomycin A1, reference compound]",effect on SM875-induced decrease of PrP^C levels,human PrP^C,almost completely prevents
COc1cc(C2CC(=O)Nc3c2cnn3-c2ccc(I)cc2)ccc1O (stereo not shown) [GC6],IC25,human PrP^C,sub-micromolar
same,IC50,human PrP^C,sub-micromolar
same,effect on PrP^C expression,human PrP^C,even more prominent activity in ZR-75 cells than in HEK293 cells
COc1cc(C2CC(=O)Nc3c2cnn3-c2ccc(Br)cc2)ccc1O (stereo not shown) [SM875],PrP^C mRNA levels,mouse PrP^C mRNA,does not decrease PrP^C mRNA levels
same,PrP^C mRNA levels,PrP^C mRNA [1],does not decrease PrP^C mRNA levels
same,PrP^C mRNA levels,PrP^C mRNA [2],does not decrease PrP^C mRNA levels
same,alpha-cleavage (C1 PrP),PrP^C,dose-dependent increase of Cl PrP
same,cell surface EGFP-PrP^C,EGFP-PrP^C,drastic reduction
same,effect on control protein NEGR-1,NEGR-1,did not produce any effect
same,cytotoxicity,HEK293 cells,evident cytotoxicity
same,"estimated median lethal dose, LD50",HEK293 cells; human,4.6 µM
same,LC3II levels,LC3II,large increase; also recorded: much smaller increase
COc1cc(C2CC(=O)Nc3c2cnn3-c2cccc(F)c2)ccc1O (stereo not shown) [SM898],"estimated median lethal dose, LD50",HEK293 cells; human,37.9 µM
same,reduction of cytotoxicity versus SM875,HEK293 cells; human,~3 times
OCC(O)Cn1c2ccc(Br)cc2c2cc(Br)ccc21 (stereo not shown) [SM930],concentration inducing cell death,ZR-75 cells,30 µM
same,concentration from which human PrP^C expression is suppressed,human PrP^C,≥ 3 µM
same,concentration inducing cell death,HEK293 cells; human,30 µM
Cc1ccccc1Cn1c(=O)c2c(nc3n(-c4ccccc4O)c(C)c(C)n23)n(C)c1=O [SM940],PrP^C mRNA levels,mouse PrP^C mRNA,do not suppress mouse PrP^C mRNA levels
same,concentration inducing cell death,ZR-75 cells,> 30 µM
same,concentration from which human PrP^C expression is suppressed,human PrP^C,≥ 3 µM
same,concentration inducing cell death,HEK293 cells; human,> 30 µM
COc1cc2c(cc1OC)CN(C(=O)c1cccc(Cl)c1)CC2 [SM950],PrP^C mRNA levels,mouse PrP^C mRNA,do not suppress mouse PrP^C mRNA levels
same,concentration inducing cell death,ZR-75 cells,30 µM
same,concentration from which human PrP^C expression is suppressed,human PrP^C,≥ 1 µM
same,concentration inducing cell death,HEK293 cells; human,≥ 3 µM
"OC[C@H]1O[C@H](O[C@H]2O[C@H](CO)[C@@H](O)[C@H](O)[C@H]2O)[C@H](O)[C@@H](O)[C@@H]1O [trehalose, reference compound]",LC3II levels,LC3II,increased LC3-II levels
Fe(III)-TMPyP,prion levels (PK-resistant PrP),RML prion strain,inhibits prion levels
